{
  "source": "paper PMC10718593",
  "about": "“Rational design, synthesis, molecular modeling, biological activity, and mechanism of action of polypharmacological norfloxacin hydroxamic acid derivatives” (RSC Medicinal Chemistry, 2023)",
  "data": [
    {"tested_on": "E. coli", "assay": "microbe, parasite or virus in culture", "set-up": "Minimal inhibitory concentration, bacterial growth inhibition", "settings": "Escherichia coli", "procedure": "Minimal inhibitory concentrations (MICs) were determined against a panel of test strains comprising Gram-negative, Gram-positive, and mycobacteria, including a fluoroquinolone-resistant, clinical isolate of E. coli and an MRSA strain that is also resistant to norfloxacin and ciprofloxacin (Table 1).", "units": {"MIC": "µM"}, "values": [
      {"smiles": "CCn1cc(C(=O)NO)c(=O)c2cc(F)c(N3CCN(C)CC3)cc21", "note": "[11a]", "MIC": 0.18},
      {"smiles": "CCCCCN1CCN(c2cc3c(cc2F)c(=O)c(C(=O)NO)cn3CC)CC1", "note": "[11d, 1-ethyl-6-fluoro-1,4-dihydro-N-hydroxy-7-(4-pentylpiperazin-1-yl)-4-oxoquinoline-3-carboxamide]", "MIC": 0.3},
      {"smiles": "CCn1cc(C(=O)NO)c(=O)c2cc(F)c(N3CCN(Cc4ccc(Cl)cc4)CC3)cc21", "note": "[11f]", "MIC": 1.08},
      {"smiles": "CCn1cc(C(=O)O)c(=O)c2cc(F)c(N3CCN(CN4CCCCC4)CC3)cc21", "note": "[19a, 1-ethyl-6-fluoro-1,4-dihydro-4-oxo-7-(4-((piperidin-1-yl)methyl)piperazin-1-yl)quinoline-3-carboxylic acid]", "MIC": 0.3},
      {"smiles": "CCn1cc(C(=O)NO)c(=O)c2cc(F)c(N3CCN(CN4CCOCC4)CC3)cc21", "note": "[20b]", "MIC": 0.28},
      {"smiles": "CCn1cc(C(=O)NO)c(=O)c2cc(F)c(N3CCN(CN4C(=O)CCC4=O)CC3)cc21", "note": "[23a, 1-ethyl-6-fluoro-1,4-dihydro-N-hydroxy-4-oxo-7-(4-((2,5-dioxopyrrolidin-1-yl)methyl)piperazin-1-yl)quinoline-3-carboxamide]", "MIC": 0.56},
      {"smiles": "CCn1cc(C(=O)O)c(=O)c2cc(F)c(N3CCN(CNc4ccc([N+](=O)[O-])cc4)CC3)cc21", "note": "[compound 25, 25]", "MIC": 0.266}
    ]}
  ]
}
